Patent publication US9586931B2 (Merck Sharp & Dohme Corp., priority 2012, dated 2017)

The compounds below were run against T1, recombinant human GST-Syk (Homo sapiens, UniProt P43405) (assay: Homogeneous Time-Resolved Fluorescence (HTRF) assay for the recombinant human Syk enzyme). Conditions: recombinant human GST-Syk 5 pM, ATP 25 μM, 10-dose titration 10 μM to 0.508 nM; read-out: rhSYK Activity IC50.
T1 construct: purchased Carna Biosciences 08-176
Type: biochemical
Outline: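 GST-hSyk fusion protein phosphorylated a peptide for 45 min at room temperature. The reaction was quenched with 2 nM Eu-anti-phosphotyrosine antibody and 70 nM SA-APC in 15 mM Tris pH 7.5, 40 mM EDTA, 0.01% Tween 20. The HTRF signal was read after 30 min.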
In the case of `Cc1cc(Nc2cc(C(F)(F)F)ccn2)nc(-c2cn(C3CN(C(=O)CCC(N)=O)CC3O)nn2)c1` (centres unmarked) [Example 13.5, 4-{-3-hydroxy-4-[4-(4-methyl-6-{[4-(trifluoromethyl)pyridin-2-yl]amino}pyridin-2-yl)-1H-1,2,3-triazol-1-yl]pyrrolidin-1-yl}-4-oxobutanamide], the IC50 is reported as 0.015 µM.
Work on `Cc1cc(Nc2cc(C(F)(F)F)ccn2)nc(-c2cn(C3(CO)CCC3)nn2)c1` [Example 13.6, {1-[4-(4-methyl-6-{[4-(trifluoromethyl)pyridin-2-yl]amino}pyridin-2-yl)-1H-1,2,3-triazol-1-yl]cyclobutyl}methanol] yielded an IC50 of 0.0032 µM.
For `Cc1cc(Nc2cc(C(F)(F)F)ccn2)nc(-c2cn(C(CO)c3ccc(F)cc3)nn2)c1` (centres unmarked) [Example 13.7, 2-(4-fluorophenyl)-2-[4-(4-methyl-6-{[4-(trifluoromethyl)pyridin-2-yl]amino}pyridin-2-yl)-1H-1,2,3-triazol-1-yl]ethanol], the IC50 was 0.0037 µM.
With `Cc1cc(Nc2cc(C(F)(F)F)ccn2)nc(-c2cn(C(CO)c3ccccc3)nn2)c1` (centres unmarked) [Example 13.8, 2-[4-(4-methyl-6-{[4-(trifluoromethyl)pyridin-2-yl]amino}pyridin-2-yl)-1H-1,2,3-triazol-1-yl]-2-phenylethanol] the IC50 was 0.0071 µM.
In the case of `CCC(CO)n1cc(-c2cc(C)cc(Nc3cc(C(F)(F)F)ccn3)n2)nn1` (centres unmarked) [Example 13.9, 2-[4-(4-methyl-6-{[4-(trifluoromethyl)pyridin-2-yl]amino}pyridin-2-yl)-1H-1,2,3-triazol-1-yl]butan-1-ol], the IC50 is reported as 0.0029 µM.
`Cc1cc(Nc2cc(C(F)(F)F)ccn2)nc(-c2cn(CC(O)C(=O)O)nn2)c1` (centres unmarked) [Example 14, 2-Hydroxy-3-(4-(4-methyl-6-((4-(trifluoromethyl)pyridin-2-yl)amino)pyridin-2-yl)-1H-1,2,3-triazol-1-yl)propanoic acid] was tested, and the IC50 was 0.0449 µM.
For `Cc1cc(Nc2nccc(C(F)(F)F)n2)cc(-n2cc(C3(O)CCC4(CC3)OCCO4)nn2)c1` [Example 15, 8-[1-(3-Methyl-5-{[4-(trifluoromethyl)pyrimidin-2-yl]amino}phenyl)-1H-1,2,3-triazol-4-yl]-1,4-dioxaspiro[4.5]decan-8-ol], the IC50 was 0.0947 µM.
For `Cc1cc(Nc2nccc(C(F)(F)F)n2)cc(-n2cc(C3(O)CCC(C(=O)O)C(C)(C)C3)nn2)c1` (centres unmarked) [Example 15.1, 4-hydroxy-2,2-dimethyl-4-[1-(3-methyl-5-{[4-(trifluoromethyl)pyrimidin-2-yl]amino}phenyl)-1H-1,2,3-triazol-4-yl]cyclohexanecarboxylic acid], the IC50 was 0.0065 µM.
`Cc1cc(Nc2nccc(C(F)(F)F)n2)cc(-n2cc(C3(O)CCC(C(=O)O)C(C)(C)C3)nn2)c1` (centres unmarked) [Example 15.2] showed an IC50 of 0.0145 µM.
Compound `Cc1cc(Nc2nccc(C(F)(F)F)n2)cc(-n2cc([C@]3(O)CC[C@H](C(=O)O)CC3)nn2)c1` [Example 15.3, trans-4-hydroxy-4-[1-(3-methyl-5-{[4-(trifluoromethyl)pyrimidin-2-yl]amino}phenyl)-1H-1,2,3-triazol-4-yl]cyclohexanecarboxylic acid] has an IC50 of 0.232 µM.
`Cc1cc(Nc2nccc(C(F)(F)F)n2)cc(-n2cc([C@]3(O)CC[C@@H](C(=O)O)CC3)nn2)c1` [Example 15.4, cis-4-hydroxy-4-[1-(3-methyl-5-{[4-(trifluoromethyl)pyrimidin-2-yl]amino}phenyl)-1H-1,2,3-triazol-4-yl]cyclohexanecarboxylic acid] gave an IC50 of 0.0125 µM.
For `Cc1cc(Nc2nccc(C(F)(F)F)n2)cc(-n2cc([C@]3(O)CC[C@H](C(=O)OC(C)(C)C)CC3)nn2)c1` [Example 15.5, tert-butyl trans-4-hydroxy-4-[1-(3-methyl-5-{[4-(trifluoromethyl)pyrimidin-2-yl]amino}phenyl)-1H-1,2,3-triazol-4-yl]cyclohexanecarboxylate], the IC50 was 2.39 µM.
For `Cc1cc(Nc2nccc(C(F)(F)F)n2)cc(-n2cc([C@]3(O)CC[C@@H](C(=O)OC(C)(C)C)CC3)nn2)c1` [Example 15.6, tert-butyl cis-4-hydroxy-4-[1-(3-methyl-5-{[4-(trifluoromethyl)pyrimidin-2-yl]amino}phenyl)-1H-1,2,3-triazol-4-yl]cyclohexanecarboxylate], the IC50 was 0.85 µM.
Compound `Cc1cc(Nc2nccc(C(F)(F)F)n2)cc(-n2cc(CC(O)CO)nn2)c1` (centres unmarked) [Example 15.7, 3-[1-(3-methyl-5-{[4-(trifluoromethyl)pyrimidin-2-yl]amino}phenyl)-1H-1,2,3-triazol-4-yl]propane-1,2-diol] has an IC50 of 0.0531 µM.
Compound `Cc1cc(Nc2nccc(C(F)(F)F)n2)cc(-n2cc([C@@]3(O)CC[C@H](C(=O)O)C(C)(C)C3)nn2)c1` [Example 15.9, (1S,4R)-4-hydroxy-2,2-dimethyl-4-[1-(3-methyl-5-{[4-(trifluoromethyl)pyrimidin-2-yl]amino}phenyl)-1H-1,2,3-triazol-4-yl]cyclohexanecarboxylic acid] has an IC50 of 0.0081 µM.
`COC(=O)[C@H]1CC[C@](O)(c2cn(-c3cc(C)cc(Nc4nccc(C(F)(F)F)n4)c3)nn2)CC1(C)C` [Example 15.10, methyl (1S,4R)-4-hydroxy-2,2-dimethyl-4-[1-(3-methyl-5-{[4-(trifluoromethyl)pyrimidin-2-yl]amino}phenyl)-1H-1,2,3-triazol-4-yl]cyclohexanecarboxylate] gave an IC50 of 0.179 µM.
Compound `Cc1cc(Nc2nccc(C(F)(F)F)n2)cc(-n2ccnn2)c1` [Example 15.11, N-[3-methyl-5-(1H-1,2,3-triazol-1-yl)phenyl]-4-(trifluoromethyl)pyrimidin-2-amine] has an IC50 of 0.102 µM.
With `Cc1cc(Nc2nccc(C(F)(F)F)n2)cc(-n2cc([Si](C)(C)C)nn2)c1` [Example 15.12, N-{3-methyl-5-[4-(trimethylsilyl)-1H-1,2,3-triazol-1-yl]phenyl}-4-(trifluoromethyl)pyrimidin-2-amine] the IC50 was 0.284 µM.
With `Cc1cc(Nc2nccc(C(F)(F)F)n2)cc(-n2cc(CC(C)(C)C(=O)O)nn2)c1` [Example 15.13, 2,2-dimethyl-3-[1-(3-methyl-5-{[4-(trifluoromethyl)pyrimidin-2-yl]amino}phenyl)-1H-1,2,3-triazol-4-yl]propanoic acid] the IC50 was 0.088 µM.
`Cc1cc(Nc2nccc(C(F)(F)F)n2)cc(-n2cc(CCC(=O)O)nn2)c1` [Example 15.14, 3-[1-(3-methyl-5-{[4-(trifluoromethyl)pyrimidin-2-yl]amino}phenyl)-1H-1,2,3-triazol-4-yl]propanoic acid] gave an IC50 of 0.0796 µM.
`CCOC(=O)C(C)(C)Cc1cn(-c2cc(C)cc(Nc3nccc(C(F)(F)F)n3)c2)nn1` [Example 15.15, ethyl 2,2-dimethyl-3-[1-(3-methyl-5-{[4-(trifluoromethyl)pyrimidin-2-yl]amino}phenyl)-1H-1,2,3-triazol-4-yl]propanoate] gave an IC50 of 0.255 µM.
`Cc1cc(Nc2nccc(C(F)(F)F)n2)cc(-n2cc(C3(O)CCC(O)CC3)nn2)c1` (stereo not drawn) [Example 15.16, trans-1-[1-(3-methyl-5-{[4-(trifluoromethyl)pyrimidin-2-yl]amino}phenyl)-1H-1,2,3-triazol-4-yl]cyclohexane-1,4-diol] gave an IC50 of 0.117 µM.
In the case of `Cc1cc(Nc2nccc(C(F)(F)F)n2)cc(-n2cc([C@]3(O)CC[C@@H](O)CC3)nn2)c1` [Example 15.17, cis-1-[1-(3-methyl-5-{[4-(trifluoromethyl)pyrimidin-2-yl]amino}phenyl)-1H-1,2,3-triazol-4-yl]cyclohexane-1,4-diol], the IC50 is reported as 0.03 µM.
Work on `Cc1cc(Nc2cc(C(F)(F)F)ccn2)nc(-c2nnc(C)n2C)c1` [Example 16.1, 6-(4,5-dimethyl-4H-1,2,4-triazol-3-yl)-4-methyl-N-[4-(trifluoromethyl)pyridin-2-yl]pyridin-2-amine] yielded an IC50 of 0.65 µM.
`Cc1cc(Nc2cc(C(F)(F)F)ccn2)nc(-c2nnc[nH]2)c1` [Example 16.2, 4-methyl-6-(4H-1,2,4-triazol-3-yl)-N-[4-(trifluoromethyl)pyridin-2-yl]pyridin-2-amine] was tested, and the IC50 was 0.328 µM.
For `Cc1cc(Nc2cc(C(F)(F)F)ccn2)nc(-c2nncn2C)c1` [Example 16.3, 4-methyl-6-(4-methyl-4H-1,2,4-triazol-3-yl)-N-[4-(trifluoromethyl)pyridin-2-yl]pyridin-2-amine], the IC50 was 0.389 µM.
For `Cc1cc(Nc2cc(C(F)(F)F)ccn2)nc(-c2cn(C(C)CO)nn2)c1` (centres unmarked) [Example 18.1, 2-[4-(4-Methyl-6-{[4-(trifluoromethyl)pyridin-2-yl]amino}pyridin-2-yl)-1H-1,2,3-triazol-1-yl]propan-1-ol], the IC50 was 0.0022 µM.
For `Cc1cc(Nc2nccc(C(F)(F)F)n2)cc(-c2nnc(CCC(=O)O)[nH]2)c1` [Example 20.1, 3-(5-(3-Methyl-5-((4-(trifluoromethyl)pyrimidin-2-yl)amino)phenyl)-4H-1,2,4-triazol-3-yl)propanoic acid], the IC50 was 0.0077 µM.
Work on `Cc1cc(Nc2cc(C(F)F)ccn2)nc(-c2cn(CC(C)(O)C(C)(C)O)nn2)c1` (centres unmarked) [Example 21.9, 1-[4-(6-{[4-(difluoromethyl)pyridin-2-yl]amino}-4-methylpyridin-2-yl)-1H-1,2,3-triazol-1-yl]-2,3-dimethylbutane-2,3-diol] yielded an IC50 of 0.0135 µM.
In the case of `Cc1cc(Nc2cc(C)c(Cl)cn2)nc(-c2cn(CC(C)(O)C(C)(C)O)nn2)c1` (centres unmarked) [Example 21.10, 1-(4-{6-[(5-chloro-4-methylpyridin-2-yl)amino]-4-methylpyridin-2-yl}-1H-1,2,3-triazol-1-yl)-2,3-dimethylbutane-2,3-diol], the IC50 is reported as 0.0201 µM.
`Cc1cc(Nc2ncc(Cl)c(C)n2)cc(-c2cn(CC(C)(O)C(C)(C)O)nn2)c1` (centres unmarked) [Example 21.11, 1-(4-{3-[(5-chloro-4-methylpyrimidin-2-yl)amino]-5-methylphenyl}-1H-1,2,3-triazol-1-yl)-2,3-dimethylbutane-2,3-diol] showed an IC50 of 0.182 µM.
Compound `COc1ccnc(Nc2cc(C)cc(-c3cn(CC(C)(O)C(C)(C)O)nn3)c2)n1` (centres unmarked) [Example 21.12, 1-(4-{3-[(4-methoxypyrimidin-2-yl)amino]-5-methylphenyl}-1H-1,2,3-triazol-1-yl)-2,3-dimethylbutane-2,3-diol] has an IC50 of 0.0283 µM.
